Measurements from ChEMBL document CHEMBL1142367, “1H-Pyrazolo[3,4-g]hexahydro-isoquinolines as selective glucocorticoid receptor antagonists with high functional activity” (Bioorg Med Chem Lett, 2008).

How the values were obtained:
Glucocorticoid receptor [1] = molecular target: T1, Glucocorticoid receptor (Homo sapiens, UniProt P04150); experiment: Antagonist activity at GR in SW1353/MMTV5 cells assessed as inhibition of dexamethasone-induced luciferase expression; assay type: functional, cell-based
T1 sequence (P04150 whole entry): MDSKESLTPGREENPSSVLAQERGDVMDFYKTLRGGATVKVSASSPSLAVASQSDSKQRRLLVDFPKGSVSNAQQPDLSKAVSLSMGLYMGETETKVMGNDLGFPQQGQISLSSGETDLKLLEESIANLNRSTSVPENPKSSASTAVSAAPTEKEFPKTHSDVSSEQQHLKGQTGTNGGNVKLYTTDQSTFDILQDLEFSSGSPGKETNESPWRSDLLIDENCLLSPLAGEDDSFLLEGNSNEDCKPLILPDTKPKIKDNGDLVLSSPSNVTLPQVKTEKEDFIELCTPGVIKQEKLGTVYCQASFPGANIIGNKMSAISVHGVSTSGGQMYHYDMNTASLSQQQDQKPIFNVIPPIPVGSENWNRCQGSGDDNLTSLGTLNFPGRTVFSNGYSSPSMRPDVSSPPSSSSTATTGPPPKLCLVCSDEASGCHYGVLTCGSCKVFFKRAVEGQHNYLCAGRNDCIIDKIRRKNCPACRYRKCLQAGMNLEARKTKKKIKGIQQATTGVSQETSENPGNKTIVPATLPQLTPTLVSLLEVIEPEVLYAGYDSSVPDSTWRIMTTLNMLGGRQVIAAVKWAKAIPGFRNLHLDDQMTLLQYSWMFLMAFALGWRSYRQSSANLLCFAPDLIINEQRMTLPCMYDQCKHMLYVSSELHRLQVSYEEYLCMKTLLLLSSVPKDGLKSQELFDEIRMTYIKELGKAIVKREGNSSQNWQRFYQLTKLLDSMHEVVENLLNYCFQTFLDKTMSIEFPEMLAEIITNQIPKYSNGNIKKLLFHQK

Glucocorticoid receptor [2] = molecular target: T1, Glucocorticoid receptor; experiment: Displacement of [3H]dexamethasone from human recombinant GR
[3] = Oral bioavailability in rat; assay type: ADME, organism-based; conditions: in vivo

Row | SMILES | Ki (Glucocorticoid receptor [1]) [nM] | Ki (Glucocorticoid receptor [2]) [nM] | bioavailability [3] [%]
1 | CC(C)(C)c1ccc(S(=O)(=O)N2CCC3=Cc4c(cnn4-c4ccc(F)cc4)C[C@]3(CNCCO)C2)cc1 | 28 | 2.8 | –
2 | O=S(=O)(c1ccccc1)N1CCC2=Cc3c(cnn3-c3ccc(F)cc3)CC2(Cc2ccc(F)cc2)C1 (racemic) | 36 | 2.2 | –
3 | Fc1ccc(CC23Cc4cnn(-c5ccc(F)cc5)c4C=C2CCN(Cc2cccnc2)C3)cc1 (racemic) | > 1000 | 22 | –
4 | C[C@]12Cc3cnn(-c4ccc(F)cc4)c3C=C1CCN(S(=O)(=O)c1ccc(F)cc1)C2 | 293 | 9 | –
5 | CN(C)CCNC[C@]12Cc3cnn(-c4ccc(F)cc4)c3C=C1CCN(S(=O)(=O)c1ccc(C(C)(C)C)cc1)C2 | 60 | 3.8 | –
6 | CCN(CC)C[C@]12Cc3cnn(-c4ccc(F)cc4)c3C=C1CCN(S(=O)(=O)c1ccc(C(C)(C)C)cc1)C2 | 14 | 1.7 | –
7 | O=S(=O)(c1ccc(F)cc1)N1CCC2=Cc3c(cnn3-c3ccc(F)cc3)C[C@]2(CO)C1 | 184 | 8.6 | –
8 | Cc1ccc(S(=O)(=O)N2CCC3=Cc4c(cnn4-c4ccc(F)cc4)C[C@]3(C)C2)cc1 | 96 | 2.3 | –
9 | CC(C)(C)c1ccc(S(=O)(=O)N2CCC3=Cc4c(cnn4-c4ccc(F)cc4)C[C@]3(COCCN3CCCCC3)C2)cc1 | 77 | 8.6 | –
10 | CN1CCN(C[C@]23Cc4cnn(-c5ccc(F)cc5)c4C=C2CCN(S(=O)(=O)c2ccc(C(C)(C)C)cc2)C3)CC1 | 85 | 6.7 | –
11 | CC(C)(C)c1ccc(S(=O)(=O)N2CCC3=Cc4c(cnn4-c4ccc(F)cc4)C[C@]3(CN3CCCC3)C2)cc1 | 3.4 | 1.1 | 2
12 | C[C@]12Cc3cnn(-c4ccc(F)cc4)c3C=C1CCN(S(=O)(=O)c1ccc(N)cc1)C2 | > 1000 | 17 | –
13 | Cc1ccccc1S(=O)(=O)N1CCC2=Cc3c(cnn3-c3ccc(F)cc3)C[C@]2(C)C1 | – | 22 | –
14 | COCCOC[C@]12Cc3cnn(-c4ccc(F)cc4)c3C=C1CCN(S(=O)(=O)c1ccc(C)cc1)C2 | – | – | 8
15 | O=S(=O)(c1ccccc1)N1CCC2=Cc3c(cnn3-c3ccc(F)cc3)C[C@]2(CO)C1 | – | 10 | –
16 | O=S(=O)(N1CCOCC1)N1CCC2=Cc3c(cnn3-c3ccc(F)cc3)CC2(Cc2ccc(F)cc2)C1 (racemic) | > 1000 | 26 | –
17 | CC(C)NC[C@]12Cc3cnn(-c4ccc(F)cc4)c3C=C1CCN(S(=O)(=O)c1ccc(C(C)(C)C)cc1)C2 | 17 | 2.1 | 5
18 | COc1ccc(S(=O)(=O)N2CCC3=Cc4c(cnn4-c4ccc(F)cc4)C[C@]3(C)C2)cc1 | 178 | 3.7 | –
19 | O=C(c1ccccc1)N1CCC2=Cc3c(cnn3-c3ccc(F)cc3)CC2(Cc2ccc(F)cc2)C1 (racemic) | – | > 1000 | –
20 | C[C@]12Cc3cnn(-c4ccc(F)cc4)c3C=C1CCN(S(=O)(=O)c1ccc(C(F)(F)F)cc1)C2 | 78 | 3.4 | –
21 | CS(=O)(=O)N1CCC2=Cc3c(cnn3-c3ccc(F)cc3)CC2(Cc2ccc(F)cc2)C1 (racemic) | > 1000 | 13 | –
22 | C[C@]12Cc3cnn(-c4ccc(F)cc4)c3C=C1CCN(S(=O)(=O)c1ccccc1F)C2 | – | 34 | –
23 | CN(C)C[C@]12Cc3cnn(-c4ccc(F)cc4)c3C=C1CCN(S(=O)(=O)c1ccc(F)cc1)C2 | 29 | 2.6 | –

The remaining lines, values ahead:

Row | Ki (Glucocorticoid receptor [1]) [nM] | Ki (Glucocorticoid receptor [2]) [nM] | bioavailability [3] [%] | SMILES
24 | 11 | 0.9 | – | C=CCNC[C@]12Cc3cnn(-c4ccc(F)cc4)c3C=C1CCN(S(=O)(=O)c1ccc(C(C)(C)C)cc1)C2
25 | 4.9 | 1.5 | – | O=S(=O)(c1ccccc1)N1CCC2=Cc3c(cnn3-c3ccc(F)cc3)C[C@]2(CN2CCCC2)C1
26 | 5.1 | 0.8 | 2 | CC(C)(C)c1ccc(S(=O)(=O)N2CCC3=Cc4c(cnn4-c4ccc(F)cc4)C[C@]3(COCCC#N)C2)cc1
27 | 0.6 | 0.7 | 0 | COCCOC[C@]12Cc3cnn(-c4ccc(F)cc4)c3C=C1CCN(S(=O)(=O)c1ccc(C(C)(C)C)cc1)C2
28 | 5.8 | 1.6 | – | CC(C)(C)c1ccc(S(=O)(=O)N2CCC3=Cc4c(cnn4-c4ccc(F)cc4)C[C@]3(CN3CCCCC3)C2)cc1
29 | 4.7 | 1.4 | – | CC(C)(C)c1ccc(S(=O)(=O)N2CCC3=Cc4c(cnn4-c4ccc(F)cc4)C[C@]3(Cc3ccccc3)C2)cc1
30 | 11 | 1.3 | – | O=S(=O)(c1ccc(N2CCOCC2)cc1)N1CCC2=Cc3c(cnn3-c3ccc(F)cc3)CC2(Cc2ccc(F)cc2)C1 (racemic)
31 | 26 | 1.4 | – | O=S(=O)(c1ccc(F)cc1)N1CCC2=Cc3c(cnn3-c3ccc(F)cc3)CC2(Cc2ccc(F)cc2)C1 (racemic)
32 | 8.7 | 0.8 | – | CC(C)(C)c1ccc(S(=O)(=O)N2CCC3=Cc4c(cnn4-c4ccc(F)cc4)C[C@]3(COCCO)C2)cc1
33 | 11 | 1.4 | 4 | CC(C)(C)c1ccc(S(=O)(=O)N2CCC3=Cc4c(cnn4-c4ccc(F)cc4)C[C@]3(CN3CCC3)C2)cc1
34 | 5.7 | 0.5 | – | COC[C@]12Cc3cnn(-c4ccc(F)cc4)c3C=C1CCN(S(=O)(=O)c1ccc(C)cc1)C2
35 | 1.6 | 0.8 | – | COCCCOC[C@]12Cc3cnn(-c4ccc(F)cc4)c3C=C1CCN(S(=O)(=O)c1ccc(C(C)(C)C)cc1)C2
36 | 6.8 | 0.9 | – | CCOC[C@]12Cc3cnn(-c4ccc(F)cc4)c3C=C1CCN(S(=O)(=O)c1ccc(C(F)(F)F)cc1)C2 [CORT 108297]
37 | 14 | 1.3 | – | CC(C)(C)c1ccc(S(=O)(=O)N2CCC3=Cc4c(cnn4-c4ccc(F)cc4)CC3(Cc3ccc(F)cc3)C2)cc1 (racemic)
38 | 3.1 | 1 | 0 | COCCNC[C@]12Cc3cnn(-c4ccc(F)cc4)c3C=C1CCN(S(=O)(=O)c1ccc(C(C)(C)C)cc1)C2
39 | 47 | 1.6 | – | CC(C)(C)c1ccc(S(=O)(=O)N2CCC3=Cc4c(cnn4-c4ccc(F)cc4)C[C@]3(CO)C2)cc1
40 | 2.9 | 0.5 | – | COCCOC[C@]12Cc3cnn(-c4ccc(F)cc4)c3C=C1CCN(S(=O)(=O)c1ccccc1)C2
41 | 17 | 1.5 | – | Cc1ccc(S(=O)(=O)N2CCC3=Cc4c(cnn4-c4ccc(F)cc4)CC3(Cc3ccc(F)cc3)C2)cc1 (racemic)
42 | 5.8 | 0.8 | – | O=S(=O)(c1ccccc1)N1CCC2=Cc3c(cnn3-c3ccc(F)cc3)C[C@]2(CN2CCCCC2)C1
43 | 6.9 | 1.2 | 0 | CN(C)C[C@]12Cc3cnn(-c4ccc(F)cc4)c3C=C1CCN(S(=O)(=O)c1ccc(C(C)(C)C)cc1)C2
44 | 8 | 1.6 | – | O=S(=O)(c1ccc(F)cc1)N1CCC2=Cc3c(cnn3-c3ccc(F)cc3)C[C@]2(CN2CCCC2)C1
45 | 1.9 | 0.8 | – | CCOC[C@]12Cc3cnn(-c4ccc(F)cc4)c3C=C1CCN(S(=O)(=O)c1ccc(C(C)(C)C)cc1)C2
46 | 9 | 0.9 | – | CCCOC[C@]12Cc3cnn(-c4ccc(F)cc4)c3C=C1CCN(S(=O)(=O)c1ccc(C(F)(F)F)cc1)C2
47 | 10 | 1.1 | – | CN(C)C[C@]12Cc3cnn(-c4ccc(F)cc4)c3C=C1CCN(S(=O)(=O)c1ccccc1)C2
